Experimental data reported in ChEMBL document CHEMBL5726504, “Substituted cyclopentanes, tetrahydrofuranes and pyrrolidines as orexin receptor antagonists” (2017).

Biological target: T1, Orexin/Hypocretin receptor type 1 (Homo sapiens, UniProt O43613)
T1 sequence (O43613 whole entry): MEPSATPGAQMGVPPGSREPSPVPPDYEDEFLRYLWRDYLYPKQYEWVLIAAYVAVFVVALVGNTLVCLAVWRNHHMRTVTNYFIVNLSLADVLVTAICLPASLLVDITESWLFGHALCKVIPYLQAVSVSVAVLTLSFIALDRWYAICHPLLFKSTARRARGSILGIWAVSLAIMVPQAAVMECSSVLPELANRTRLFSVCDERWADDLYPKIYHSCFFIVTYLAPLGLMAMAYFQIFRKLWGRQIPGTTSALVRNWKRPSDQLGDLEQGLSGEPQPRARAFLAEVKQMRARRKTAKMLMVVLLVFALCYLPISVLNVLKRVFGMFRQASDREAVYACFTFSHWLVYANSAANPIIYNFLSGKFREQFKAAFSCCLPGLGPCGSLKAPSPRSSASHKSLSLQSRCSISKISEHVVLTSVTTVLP
Experiment: FLIPR Assay: Orexin antagonist activity was determined by measuring changes in intracellular calcium levels using a Ca2+ sensitive fluorescent dye. The changes in fluorescent signal were monitored by Fluorescent Imaging Plate Reader (FLIPR) technology available from Molecular Devices, LLC, U.S.A. Orexin mediated increases in intracellular Ca2+ concentration were readily detected upon activation with orexin-A. Twenty-four hours prior to the assay, RBL-2H3 cells stably expressing either human orexin receptor 1 or human orexin receptor 2 were seeded in cell culture medium in black, clear-bottom 384-well plates (commercially available from Corning Inc., U.S.A.) and grown overnight at 37° C., 5% CO2. On the day of the assay, cell culture media was removed and cells were loaded with Calcium 5 Dye (commercially sold by Molecular Devices, LLC, U.S.A.) for 1 hour at 37° C., 5% CO2. Test compounds (at 10 point half log concentration response curves from 10 uM) were added to cells for 15 minutes prior to the addition of orexin-A to all wells, to achieve a final concentration that produces approximately an 80% maximal response.
Type: cell-based

IC50: 128 nM
Compound: COc1ccc(Br)nc1C(=O)N[C@H]1CCC[C@@H]1Nc1nc2ccc(F)cc2s1
